Data on 22 compounds can be found in publication PMC7582602, “Beyond the Canonical Endocannabinoid System. A Screening of PPAR Ligands as FAAH Inhibitors” (International Journal of Molecular Sciences, 2020).

The test system of one series is FAAH. More on the design: method as in PMID 23240907. The conditions noted are these: literature value for carprofen; cited from earlier work.
The next series has as its target T1, FAAH Human recombinant (Homo sapiens, UniProt O00519).
T1 construct: purchased Cayman Chemical
T1 sequence (O00519 1-579): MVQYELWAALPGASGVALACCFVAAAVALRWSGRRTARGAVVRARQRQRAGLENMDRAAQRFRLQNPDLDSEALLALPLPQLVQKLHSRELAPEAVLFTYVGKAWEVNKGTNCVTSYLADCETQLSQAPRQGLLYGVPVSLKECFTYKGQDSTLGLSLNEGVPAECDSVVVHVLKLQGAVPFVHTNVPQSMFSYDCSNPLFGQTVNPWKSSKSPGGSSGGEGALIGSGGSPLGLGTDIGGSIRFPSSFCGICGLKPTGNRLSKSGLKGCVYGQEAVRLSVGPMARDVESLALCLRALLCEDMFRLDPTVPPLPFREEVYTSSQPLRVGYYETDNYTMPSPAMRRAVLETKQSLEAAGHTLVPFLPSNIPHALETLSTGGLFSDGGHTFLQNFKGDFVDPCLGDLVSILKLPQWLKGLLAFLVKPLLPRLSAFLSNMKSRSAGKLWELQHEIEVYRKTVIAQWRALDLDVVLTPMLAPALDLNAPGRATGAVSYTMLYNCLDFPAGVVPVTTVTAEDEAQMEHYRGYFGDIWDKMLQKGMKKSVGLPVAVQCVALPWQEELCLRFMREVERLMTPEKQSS
Description: FAAH inhibition assay (fluorometric, AMC-AA substrate). The format is biochemical. The conditions noted are these: for IC50: human recombinant FAAH, mean ± SEM, i: inactive; for inhibition at 100 µM: read-out: FAAH % inhibition @ 100 μM. On the procedure: Briefly, 96-well black flat-bottom microtiter NBS plates (COSTAR flat black) were utilized to perform the assays (in triplicate).
Control wells lacking the inhibitor and blank wells lacking both inhibitor and enzyme were used to calculate percent inhibition for each tested compound. IC50 values were calculated via GraphPad Prism 5.0 (GraphPad Software, La Jolla, CA, USA) and are reported as mean ± SEM of at least two independent measurements performed in triplicate.

Series [1] concerns the target T2, human PPARγ (Homo sapiens, UniProt P37231).
T2 sequence (P37231 238-503 limits assumed): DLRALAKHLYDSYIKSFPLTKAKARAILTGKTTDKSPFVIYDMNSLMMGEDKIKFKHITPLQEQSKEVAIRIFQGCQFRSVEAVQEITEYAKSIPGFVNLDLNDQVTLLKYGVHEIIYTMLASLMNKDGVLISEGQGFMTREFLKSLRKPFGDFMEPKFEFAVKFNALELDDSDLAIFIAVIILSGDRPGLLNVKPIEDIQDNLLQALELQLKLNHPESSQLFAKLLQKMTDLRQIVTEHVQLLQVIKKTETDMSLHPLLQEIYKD
Kind of series: GAL4-PPARγ-LBD transactivation (luciferase) assay in HepG2 cells. The settings on record: for Emax: HepG2, read-out: PPARγ Emax.
Description: (§1) Transactivation assays were conducted seeding 10^5 cells/well in a 24-well plate. The cells were transfected after 24 h with the calcium phosphate method CAPHOS®, following the manufacturer’s guidelines. Plasmids encoding the fusion proteins GAL4-PPARa-LBD, GAL4-PPARg-LBD, GAL4-PPARd-LBD or GAL4-FXR-LBD (30 ng), pGAL5TKpGL3 (100 ng), and pCMVbgal (250 ng) were used. Treatment of the cells with the investigated compounds was carried out 4 h after transfection, in triplicate, and the cells were incubated in the treated medium for additional 20 h. Cells were then lysed and luciferase activity in the extract was determined via a VICTOR^3 V Multilabel Plate Reader, PerkinElmer).

In series [2] the target is T3, human PPARα (Homo sapiens, UniProt Q07869).
T3 sequence (Q07869 239-466 limits assumed): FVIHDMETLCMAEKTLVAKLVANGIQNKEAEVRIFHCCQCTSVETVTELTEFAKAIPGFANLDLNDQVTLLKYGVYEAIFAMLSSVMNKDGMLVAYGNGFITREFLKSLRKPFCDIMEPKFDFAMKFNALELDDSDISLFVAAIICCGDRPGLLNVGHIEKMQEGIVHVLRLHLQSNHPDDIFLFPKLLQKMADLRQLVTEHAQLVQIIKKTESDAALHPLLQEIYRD
Kind of series: GAL4-PPARα-LBD transactivation (luciferase) assay in HepG2 cells. The conditions noted are these: for Emax: HepG2, read-out: PPARα Emax.
Description: as §1

Series [3] deals with T2, human PPARγ. The settings on record: previously reported compound; cited from earlier work.
Series [4] deals with T3, human PPARα. The conditions noted are these: previously reported compound; cited from earlier work.
The nature of another series: LogD. The series is classed as physicochemical. The settings on record: called measured LogD values.

Like-named read-outs stand apart in the source and are kept apart here.

With `CC(C(=O)O)c1ccc2c(c1)[nH]c1ccc(Cl)cc12` (centres unmarked) [carprofen], the IC50 with FAAH is 79 ± 20 µM.
Turning to `CCCc1c(OCCCOc2ccc(OCC(=O)O)cc2)ccc(C(C)=O)c1O` [Compound 3, L165,041, reference compound], on FAAH Human recombinant, the “activity on FAAH (in words)” value is listed as “little to no activity”, the IC50 is more than 100 µM and the inhibition at 100 µM is 40%.
On to `CC(Oc1ccc(CCc2ccccc2)cc1)C(=O)O` (racemic) [Compound 16], for which the melting point fell in the range of 106 to 107 °C. For the same compound, on FAAH Human recombinant, the IC50 is more than 100 µM and the inhibition at 100 µM was determined as 32.2%. Further, at human PPARγ [1], the EC50 was 24 ± 6 µM and the Emax stood at 18 ± 7%. Also, at human PPARα [2], the EC50 came to 17.6 ± 3 µM and the Emax was 116 ± 1%.
With `O=C(C=Cc1ccc(O)c(O)c1)N[C@@H](Cc1ccccc1)C(=O)O` [Compound 33], the melting point lay in the range of 198 to 199 °C. Moreover, the IC50 at FAAH Human recombinant came to 12.6 ± 3.1 µM.
Take `O=C(O)C(Cc1ccccc1)Oc1ccc(NCc2ccccc2)cc1` (centres unmarked) [Compound 20]: at FAAH Human recombinant, the half-maximal inhibitory concentration (IC50) is more than 100 µM and the inhibition at 100 µM amounted to 39.2%. The “PPARγ Emax” value on human PPARγ [3] was 27 ± 6%. For the same compound, at human PPARα [4], the “PPARα Emax” value is reported as 78 ± 4%.
`Cc1cccc(Nc2cc(Cl)nc(SCC(=O)O)n2)c1C` [Compound 2, Wy 14,643, reference compound]: at FAAH Human recombinant, the “activity on FAAH (in words)” value was “little to no activity” and the IC50 is more than 100 µM.
`O=C(O)COc1ccc(Cc2ccccc2)cc1` [Compound 5, 4-benzyl-phenoxyacetic acid] came in with a melting point of 117 to 118 °C. Also, at FAAH Human recombinant, the IC50 amounted to 40.2 ± 17.7 µM. Also, at human PPARγ [1], a half-maximal effect (EC50) was put at 33 ± 23 µM and the Emax amounted to 9 ± 6%. Also, at human PPARα [2], the EC50 stood at 24 ± 5 µM and the Emax is 34 ± 8%. In the series “LogD”, this compound came in with a logD of 0.27.
Consider `O=C(Cc1ccccc1)c1ccc(O[C@@H](Cc2ccccc2)C(=O)O)cc1` [Compound 21], for which, at FAAH Human recombinant, the IC50 is more than 100 µM and the inhibition at 100 µM came out at 34%. Also, on human PPARγ [3], the EC50 is 9.1 ± 0.9 µM and the “PPARγ Emax” value was 40 ± 2%. Also, on human PPARα [4], the EC50 is 1.8 ± 1 µM and the “PPARα Emax” value is 106 ± 1%.
For the compound `CCCCCCCN(CCc1ccc(OCC(=O)O)cc1)c1nc2ccccc2o1` [Compound 8], the IC50 on FAAH Human recombinant is 30.5 ± 12.6 µM. Besides, on human PPARγ [3], the EC50 was 0.83 ± 0.75 µM and the “PPARγ Emax” value is listed as 37 ± 11%. Also, at human PPARα [4], the EC50 was 0.12 ± 0.16 µM and the “PPARα Emax” value is recorded as 87 ± 7%.
Regarding `O=C(/C=C/c1ccccc1)O[C@@H](Cc1ccccc1)C(=O)O` [(S)-28], at FAAH Human recombinant, the IC50 is more than 100 µM. Also, the results for the Emax at human PPARγ [1] and at human PPARα [2] were 9 ± 6% and 34 ± 8%, respectively.
Turning to `CCCCCCCN(CCc1ccc(O[C@@H](C)C(=O)O)cc1)c1nc2ccccc2o1` [Compound 25], on FAAH Human recombinant, the IC50 is approximately 100 µM and the inhibition at 100 µM was determined as 45.1%. For the same compound, the “PPARγ Emax” value on human PPARγ [3] is given as 32 ± 5%. At human PPARα [4], the “PPARα Emax” value is listed as 78 ± 4%.
In turn, `CC(Oc1ccc(Cc2ccccc2)cc1)C(=O)O` (racemic) [Compound 13, (R,S)-2-(4-benzyl)-phenoxypropanoic acid] yielded a melting point of 102 to 104 °C. In addition, on FAAH Human recombinant, the IC50 was more than 100 µM and the inhibition at 100 µM stood at 30%. At human PPARα [2], the EC50 amounted to 4.6 ± 1.8 µM and the Emax stood at 116 ± 1%.
As to `O=C(O)C(Cc1ccccc1)Oc1ccc(/C=C/c2ccccc2)cc1` (centres unmarked) [Compound 18], on FAAH Human recombinant, the half-inhibitory concentration (IC50) worked out at 24 ± 2.5 µM.
Turning to `O=C(Oc1ccc([N+](=O)[O-])cc1)N1CCN(Cc2cccc(Oc3ccccc3)c2)CC1` [JZL195, reference compound], on FAAH Human recombinant, the IC50 was 0.019 ± 0.003 µM.
Regarding `COc1ccc(C=CC(=O)N[C@@H](Cc2ccc(O)cc2)C(=O)O)cc1OC` [Compound 35, (S)-2-(3-(3,4-dimethoxyphenyl)acrylamido)-3-(4-hydroxyphenyl)propanoic acid], the melting point lay within 105 to 108.5 °C.
In the case of `O=C(/C=C/c1ccc(O)c(O)c1)O[C@H](Cc1ccc(O)c(O)c1)C(=O)O` [Compound 4, Rosmarinic acid], on FAAH Human recombinant, the IC50 is approximately 100 µM and the inhibition at 100 µM amounted to 62%. Besides, at human PPARγ [1], the “activity on PPARγ (in words)” value is listed as “did not find any activity”. The “activity on PPARα (in words)” value at human PPARα [2] is “did not find any activity”.
As to `O=C(O)C(Cc1ccccc1)Oc1ccc(Cc2ccccc2)cc1` (centres unmarked) [Compound 14], at FAAH Human recombinant, the “activity on FAAH (in words)” value was “completely inactive” and the IC50 was more than 100 µM. Further, the “PPARγ Emax” value on human PPARγ [3] was 42 ± 1%. Further, at human PPARα [4], the “PPARα Emax” value is 115 ± 27%. The compound further yielded a logD in the series “LogD” of 2.62.
Take `CC(Oc1ccc(Cc2ccc(OCc3coc(-c4ccccc4)n3)cc2)cc1)C(=O)O` (centres unmarked) [Compound 17]: on FAAH Human recombinant, the IC50 is more than 100 µM. Besides, the “PPARγ Emax” value at human PPARγ [3] is 26 ± 3. The “PPARα Emax” value on human PPARα [4] was 47 ± 13.
With `O=C(O)C(Cc1ccccc1)Oc1ccc(/C=C\c2ccccc2)cc1` (centres unmarked) [Compound 19], at FAAH Human recombinant, the IC50 was more than 100 µM and the inhibition at 100 µM came out at 30.5%.
In the case of `O=C(O)COc1ccc(CCc2ccccc2)cc1` [Compound 15, 4-phenethyl-phenoxyacetic acid], the melting point fell in the range of 130 to 131 °C. For the same compound, on FAAH Human recombinant, the IC50 was approximately 100 µM and the inhibition at 100 µM was found to be 63%.
With `CCCCCCCN(CCc1ccc(O[C@H](C)C(=O)O)cc1)c1nc2ccccc2o1` [Compound 26], at FAAH Human recombinant, the IC50 was more than 100 µM and the inhibition at 100 µM came out at 35%. In addition, on human PPARγ [3], the “PPARγ Emax” value is on record as 59 ± 2%. Also, the “PPARα Emax” value on human PPARα [4] is reported as 93 ± 6%.
On to `Oc1ccc(/C=C/c2cc(O)cc(O)c2)cc1` [Compound 12, resveratrol], for which, at FAAH Human recombinant, the IC50 is 26.1 ± 11.4 µM.
